What all share (assay): Whole-cell voltage clamp of mutant TREK-1 channels
What all share (format): cell-based

Assay [1] deals with T1, mutant TREK-1 channels (Homo sapiens, UniProt O95069, T94A).
T1 construct: expressed in transfected cells; host or cells: CHO cells, transient transfection
T1 sequence (O95069 1-411 isoform O95069-2 T79A): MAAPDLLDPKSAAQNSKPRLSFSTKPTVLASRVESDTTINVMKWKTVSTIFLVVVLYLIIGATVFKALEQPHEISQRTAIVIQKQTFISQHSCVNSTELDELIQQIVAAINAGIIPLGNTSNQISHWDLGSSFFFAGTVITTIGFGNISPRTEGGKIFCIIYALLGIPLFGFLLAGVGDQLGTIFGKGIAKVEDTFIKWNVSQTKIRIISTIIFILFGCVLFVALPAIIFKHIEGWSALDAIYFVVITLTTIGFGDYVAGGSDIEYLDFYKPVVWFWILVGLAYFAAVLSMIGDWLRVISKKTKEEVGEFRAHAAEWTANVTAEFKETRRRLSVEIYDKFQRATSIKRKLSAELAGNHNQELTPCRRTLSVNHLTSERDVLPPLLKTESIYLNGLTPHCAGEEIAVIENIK
The conditions noted are these: T79A mutant. The text has this: (§1) cDNA of the human TREK-1, TREK-2 and TRAAK channels were subcloned into the pEGFPN1 expression vector (Invitrogen), respectively. Mutations were introduced into TREK-1 or TRAAK by PCR using the QuickChange XL sitedirected mutagenesis kit (Agilent Technologies) and were subsequently confirmed by DNA sequencing.
(§2) Chinese hamster ovary (CHO) cells were provided by the Cell Bank of Chinese Academy of Sciences (Shanghai, China). CHO cells were maintained in DMEM/F12 (Gibco) supplemented with 10% fetal bovine serum (Gibco) and 100 μg ml^−1 penicillin-streptomycin (Cellgro) in a humidified incubator at 37 °C (5% CO2). For electrophysiology experiments, cells plated in 35 mm tissue culture dishes (Corning Incorporated) were transiently transfected with the plasmids using PolyJet™ reagent (SignaGen) according to the manufacturer’s instructions. Primers used in this study are listed in Supplementary Table 4.
(§3) All electrophysiological recordings were obtained using patch-clamp recordings in two different configurations: (1) whole cell for macroscopic current dose–response curves; and (2) outside-out and inside-out for macroscopic currents recordings.
(§4) All patch-clamp recordings were conducted 36–96 h after transfection with an Axopatch-200B amplifier (Molecular Devices) at room temperature (23–25 °C). The microelectrodes fashioned from 1.5 mm thin-walled borosilicate glass with filament were pulled from Flaming/Brown type micropipette puller (P-97; SUTTER INSTRUMENT) with the resistances of 3–7 MΩ (whole cell) or 7–15 MΩ (outside-out) when filled with a solution containing (in mM): 140 KCl, 2 MgCl2, 10 EGTA, 1 CaCl2, 10 HEPES (pH 7.3, adjusted with KOH). External solution contained (in mM): 150 NaCl, 5 KCl, 0.5 CaCl2, 1.2 MgCl2, 10 HEPES (pH 7.3, adjusted with NaOH). The current signals were filtered at 1 kHz and digitized at a 10 kHz sampling frequency by using DigiData 1440 A.
(§5) Data of whole-cell voltage clamp experiments were fitted using doseResp function. […]

The target of assay [2] is T2, mutant TREK-1 channels (Homo sapiens, UniProt O95069, Q98A).
T2 construct: expressed in transfected cells; host or cells: CHO cells, transient transfection
T2 sequence (O95069 1-411 isoform O95069-2 Q83A): T1 sequence (O95069 1-411 isoform O95069-2 T79A) with A79T, Q83A
The conditions noted are these: Q83A mutant.
Source text: as §1, §2, §3, §4, §5

In assay [3] the target is T3, mutant TREK-1 channels (Homo sapiens, UniProt O95069, Q120A).
T3 construct: expressed in transfected cells; host or cells: CHO cells, transient transfection
T3 sequence (O95069 1-411 isoform O95069-2 Q105A): T1 sequence (O95069 1-411 isoform O95069-2 T79A) with A79T, Q105A
The conditions noted are these: Q105A mutant.
Source text: as §1, §2, §3, §4, §5

Numbering of substitutions follows the chain as printed.

For orientation: IC50 means the concentration that inhibits the measured activity by half. Low values mean higher potency, high ones lower potency.

As for `CS(=O)(=O)N(CC(=O)N1CCc2ccccc2C1)c1ccc(Cl)cc1` [TKDC, N-(4-cholorphenyl)-N-(2-(3,4-dihydrosioquinolin-2(1H)-yl)-2-oxoethyl)methanesulfonamide], the values for the concentration for half-maximal inhibition (IC50) against mutant TREK-1 channels [1], against mutant TREK-1 channels [2] and against mutant TREK-1 channels [3] were 2400 ± 400 nM, 2400 ± 600 nM and 2200 ± 500 nM, respectively.

Values taken from paper PMC5575254, “An allosteric ligand-binding site in the extracellular cap of K2P channels” (Nature Communications, 2017).
